According to patent US8481752B2, “Fluorescent imaging with substituted cyanine dyes” (Li-Cor, Inc., priority 2009, dated 2013):

Key:
[1] = Water solubility of the dye; assay type: physicochemical
[2] = Photostability on nitrocellulose under repeated Odyssey scans; assay type: physicochemical; conditions: for relative fluorescence with additional scans: as GAR conjugates on nitrocellulose, normalized to first scan, 100 scans
Method: The photostability of compound 8 was compared to that of Alexa Fluor 680 and IRDye 700DX. IRDye 700DX is one of the most photostable 700 nm fluorescent dyes known. Test samples were prepared by spotting equimolar amounts of dye-labeled conjugates (i.e., goat anti-rabbit (GAR) secondary antibodies labeled with the appropriate dye) onto nitrocellulose membrane. The membrane was then scanned repeatedly on an Odyssey Infrared Imager, so that the prolonged exposure of the dyes to the laser source induced some photodegradation. The signal intensity for each dye was normalized to the signal in the first scan for that dye (FIG. 9A-B).

| SMILES | water solubility [1] | resistance to photodegradation ([2]; as GAR conjugate) | relative fluorescence with additional scans [2] |
| --- | --- | --- | --- |
| CC1(C)C(/C=C/C(=C/C=C2/N(CCCS(=O)(=O)O)c3ccc4c(S(=O)(=O)[O-])cc(S(=O)(=O)O)cc4c3C2(C)C)c2cccc(CCCCC(=O)O)c2)=[N+](CCCS(=O)(=O)O)c2ccc3c(S(=O)(=O)O)cc(S(=O)(=O)O)cc3c21 [Compound 8, Sodium 2-((1E,3Z,5E)-3-(3-(4-Carboxybutyl)phenyl)-5-(1,1-dimethyl-6,8-disulfonato-3-(3-sulfonatopropyl)-1H-benzo[e]indol-2(3H)-ylidene)penta-1,3-dienyl)-1,1-dimethyl-3-(3-sulfonatopropyl)-1H-benzo[e]indolium-6,8-disulfonate] | highly water-soluble | good resistance to photodegradation | decreased slightly |
| C[Si](C)(CCC[N+](CCCS(=O)(=O)[O-])(CCCS(=O)(=O)[O-])CCCS(=O)(=O)[O-])O[Si]1(O[Si](C)(C)CCC[N+](CCCS(=O)(=O)[O-])(CCCS(=O)(=O)[O-])CCCS(=O)(=O)[O-])n2c3c4ccccc4c2N=C2N=C(N=c4c5ccccc5c(n41)=NC1=NC(=N3)c3ccccc31)c1cccc(OCCCOC(=O)NCCCCCC(=O)ON3C(=O)CCC3=O)c12.[Na+].[Na+].[Na+].[Na+] (stereo not shown) [IRDye 700DX] | – | – | essentially unchanged |
